# Measurements from BindingDB's records for doi:10.1021/jm0504499 (Universit&#224, 2005).
# Legend:
# [1] = target: Metabotropic glutamate receptor 2 (Rattus norvegicus) (UniProt P31421); assay: Effective concentration against mGluR2 receptor expressed in CHO cells
# [2] = target: Metabotropic glutamate receptor 2 (Rattus norvegicus) (UniProt P31421); assay: Binding affinity for mGluR2 receptor expressed in CHO cells
# Metabotropic glutamate receptor 2 (Rattus norvegicus), sequence (P31421 whole entry, looked up): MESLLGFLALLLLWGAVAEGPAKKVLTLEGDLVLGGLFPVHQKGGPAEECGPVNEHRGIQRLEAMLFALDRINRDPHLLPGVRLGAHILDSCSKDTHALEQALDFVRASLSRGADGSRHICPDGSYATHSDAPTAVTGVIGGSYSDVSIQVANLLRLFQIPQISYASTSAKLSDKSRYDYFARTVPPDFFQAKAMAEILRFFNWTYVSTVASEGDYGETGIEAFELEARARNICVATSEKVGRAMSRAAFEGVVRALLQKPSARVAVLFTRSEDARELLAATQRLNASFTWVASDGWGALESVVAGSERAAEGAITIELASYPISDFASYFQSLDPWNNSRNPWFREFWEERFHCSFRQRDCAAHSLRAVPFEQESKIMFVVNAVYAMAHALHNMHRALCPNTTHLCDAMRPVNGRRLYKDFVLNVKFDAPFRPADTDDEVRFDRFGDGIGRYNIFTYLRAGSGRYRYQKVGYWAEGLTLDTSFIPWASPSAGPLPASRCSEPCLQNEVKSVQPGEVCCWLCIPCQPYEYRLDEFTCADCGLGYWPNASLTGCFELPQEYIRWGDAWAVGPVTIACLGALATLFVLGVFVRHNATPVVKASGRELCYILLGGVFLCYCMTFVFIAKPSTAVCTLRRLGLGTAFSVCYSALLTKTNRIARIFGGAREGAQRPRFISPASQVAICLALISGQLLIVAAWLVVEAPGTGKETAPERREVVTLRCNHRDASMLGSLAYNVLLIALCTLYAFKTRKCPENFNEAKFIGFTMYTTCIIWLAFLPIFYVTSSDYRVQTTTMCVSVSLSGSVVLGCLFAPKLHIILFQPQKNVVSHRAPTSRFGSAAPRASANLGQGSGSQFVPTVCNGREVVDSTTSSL
smiles,measurement,setting,value
"N[C@@H](C[C@H]1CC(C(=O)O)=NO1)C(=O)O [5-(2-Amino-2-carboxy-ethyl)-4,5-dihydro-isoxazole-3-carboxylic acid]",EC50,[1],> 1000 µM
same,Ki,[2],> 1000 µM
